# Results reported in US20120190580A1, “TREATMENT OF PATIENTS AFTER STENT IMPLANTATION OR BALLOON DILATATION AND DRUG ELUTING STENTS” (MAX-PLANCK-GESELLSCHAFT ZUR FORDERUNG DER WISSENSCHAFTEN …, priority 2009, published 2012).
# What was measured:
# Type in all cases: in vivo, mouse
# [1] = system: mesenteric arteries; test: Myograph: contractile responses to phenylephrine of mesenteric arteries from losartan-treated mice
# Source text: (§1) A 129S7AB2.2 genomic BAC clone (bMQ-446B20; Sanger) was used to generate the targeting vector. Recombination in SW102 cell was employed to replace the miR-143 to miR-145 genomic region by a galK cassette (45) that was amplified by the primers flanking premiR-143 to pre-miR-145 ([…] GCggcgcgcctcagcactgtcctgctcctt; […] ACggcgcgcctgttgacaattaatcatcggca). The genomic sequence was inserted via gap repair into a pKO targeting vector containing a DTA expression cassette and 450 bp homology arms for BAC recombination resulting in a vector containing 6.5 kb of sequence 5′ of miR-143 and 5.5 kb 3′ of miR-145 from genomic sequence […] to […]. The AscI restriction sites flanking the galK cassette were used to replace the galK by a floxed IRESIacZ-NeoR cassette. The vector was electroporated into MPI II ES cells (46) and recombinant clones were identified. Recombinant ES cells were injected into blastocysts and transferred to pseudopregnant mice. Chimeric animals were backcrossed to C57BL/6 mice. Heterozygous animals were used to obtain WT and KO littermates. ES cells and mice were genotyped using an EcoRV restriction digest and a 5′ outside probe amplified from genomic DNA using oligonucleotides ([…]; […]). For chronic ACE or AT1 inhibition drinking water of mice was supplemented with 600 μg/ml captopril (Sigma#C-8856) and 100 µg/ml losartan (Fluka#61188) for at least 3 weeks. The experiments were performed in accordance with German legislation on protection of animals and were approved by the local governmental animal care committee (Regierungspraesidium Darmstadt).
# Isolated segments of femoral and mesenteric arteries were examined in an isometric microvessel myograph as described previously (52). Mounted vessels were stimulated with 80 mM K+, 30 nM angiotensin II or increasing concentrations of phenylephrine (100 nM to 10 μM). The pCa-force relationships (13, 14) were obtained in permeabilized mouse femoral artery segments. In brief, arteries were permeabilized for 30 minutes using 0.5% Triton X-100 in relaxation solution. The latter consisted of (in mM): EGTA 1, Pipes 30, Na2ATP 5.16, MgCl2 7.31, sodium creatine phosphate 10 and potassium gluconate 74.1. For contraction curves the buffer was supplemented with 160 U/ml calmodulin and 100 U/ml creatine phosphokinase. The concentration of free Ca2+ ions was calculated as described previously (53).
# [2] = system: aortae of miR-143/145 KO mice; test: Affymetrix GeneChip mRNA expression analysis of aortae after chronic captopril or losartan
# Source text: as §1, with “For chronic ACE or AT1 inhibition drinking water of mice was supplemented with 600 μg/ml captopril (Sigma#C-8856) and 100 µg/ml losartan (Fluka#61188) for at least 3 weeks.” left out
# Tissues were dissected from PBS perfused animals and total RNA was isolated using the Trizol method (Invitrogen). RNA quality was checked on the Agilent 2100 Bioanalyser using the RNA 6000 Nano Kit. For mRNA expression analysis the Affymetrix GeneChip Mouse Genome 430 2.0 Array was employed with the respective one-cycle target labelling protocol. Data were analysed by the RMA algorithm using the Affymetrix Expression Console. […] 507 probe sets were identified with p<0.05 and FC>1.5 or FC<0.666. For miRNA expression analysis 384 3′ C6 aminolinker DNA-oligonucleotides complementary to published miRNA (Sanger, miRBase) sequences were synthesised and spotted with eight replicates per array to Nexterion E slides. Probe labelling and hybridization followed the Agilent miRNA labelling protocol, but P-CTTTT-Alexa555 or P-CTTTTAlexa647 oligonucleotides (MWG-Biotech) were ligated to the miRNAs. Arrays were scanned and analysed with an Axon 4200B scanner and GenePix Pro 6.0. Normalisation and data analysis was performed using Acuity 4.0. For multiple tissue comparison, miRNA from tissues was labelled with the Alexa555 dye, miRNA from whole E15.5 embryos labelled with Alexa647 dye was used as a reference. Data were linear normalized to a log ratio of 1 for the ratio of medians of let-7a-g and let-7i signals. The log 2 ratio data were centered for the single miRNA expression signals (by subtracting the row mean from each value), log 2 ratio data are visualized. For Northern blot analysis 3 μg (aorta 1.5 μg) of total RNA were separated on a 15% Polyacrylamide-Urea gel (Invitrogen) and blotted on Hybond XL (Amersham). miR-145, miR-143 and U6 antisense oligonucleotides were labeled with γ-ATP and PNK (NEB) and purified using Micro Bio-Spin® 6 columns (Biorad). Hybridization was performed in Ultrahyb hybridization buffer (Ambion) at 30° C. over night. Blots were washed 2 times in 2×SSC/0.1% SDS at 25° C. (5 min) and at 42° C. (15 min). Signals were detected using a BAS-2500 imager (Fujifilm).
# [3] = system: arteries of KO mice; test: Morphological analysis of arteries after chronic treatment; settings: 20 days treatment
# Source text: A 129S7AB2.2 genomic BAC clone (bMQ-446B20; Sanger) was used to generate the targeting vector. Recombination in SW102 cell was employed to replace the miR-143 to miR-145 genomic region by a galK cassette (45) that was amplified by the primers flanking premiR-143 to pre-miR-145 ([…] GCggcgcgcctcagcactgtcctgctcctt; […] ACggcgcgcctgttgacaattaatcatcggca). The genomic sequence was inserted via gap repair into a pKO targeting vector containing a DTA expression cassette and 450 bp homology arms for BAC recombination resulting in a vector containing 6.5 kb of sequence 5′ of miR-143 and 5.5 kb 3′ of miR-145 from genomic sequence […] to […]. The AscI restriction sites flanking the galK cassette were used to replace the galK by a floxed IRESIacZ-NeoR cassette. […]
# Arteries were perfused using a PBS solution via the heart apex at 100 mmHg pressure for 2 min, followed by perfusion with 4% paraformaldehyde in PBS. […] Ultra-thin sections were stained with uranyl acetate and lead citrate, viewed and photographically recorded using a Philips CM 10 electron microscope. The phenotype of VSMC was determined ultrastructurally following criteria as previously reported (47). […] The phenotype of VSMC in each mouse was quantified in at least 300 cells per 3 arterial segments (minimum 100 μm) using consecutive transversal sections. […]
# [4] = aorta, chronic oral treatment 20 days
structure (smiles),measurement,setting,value
CCCCc1nc(Cl)c(CO)n1Cc1ccc(-c2ccccc2-c2nn[nH]n2)cc1 [losartan],phenylephrine induced contraction relative to K+ force,"[1]; KO mice, losartan for 3 weeks",96 % of the K+ force
same,enhancement of phenylephrine induced contraction,"[1]; KO mice, losartan for 3 weeks, 3 μM phenylephrine",214%
same,enhancement of phenylephrine induced contraction,"[1]; KO mice, losartan for 3 weeks, 10 μM phenylephrine",57%
same,phenylephrine-induced vasoconstriction,"[1]; WT mice, losartan",did not affect
same,contractility on phenylephrine stimulation,"[1]; arterial rings from KO animals, losartan-treated vs. KO untreated",significant enhancement
same,"FC Acta1 (1427735_a_at), treated miR-143/145 KO vs. WT",[2]; [4],0.76
same,"FC Arhgef17 (1433682_at), treated miR-143/145 KO vs. WT",[2]; [4],1.11
same,"FC Cald1 (1424768_at), treated miR-143/145 KO vs. WT",[2]; [4],1.53
same,"FC Camk2g (1423942_a_at), treated miR-143/145 KO vs. WT",[2]; [4],1.17
same,"FC Cap2 (1423222_at), treated miR-143/145 KO vs. WT",[2]; [4],1.36
same,"FC Clcn3 (1433486_at), treated miR-143/145 KO vs. WT",[2]; [4],1.27
same,"FC Efemp1 (1427183_at), treated miR-143/145 KO vs. WT",[2]; [4],0.71
same,"FC Itga3 (1455158_at), treated miR-143/145 KO vs. WT",[2]; [4],0.84
same,"FC Krt8 (1420647_a_at), treated miR-143/145 KO vs. WT",[2]; [4],1.00
same,"FC Mc2r (1422926_at), treated miR-143/145 KO vs. WT",[2]; [4],0.70
same,"FC Mylk (1425506_at), treated miR-143/145 KO vs. WT",[2]; [4],1.06
same,"FC Mylpf (1448371_at), treated miR-143/145 KO vs. WT",[2]; [4],1.05
same,"FC Myoc (1450468_at), treated miR-143/145 KO vs. WT",[2]; [4],0.76
same,"FC Neo1 (1440789_at), treated miR-143/145 KO vs. WT",[2]; [4],1.27
same,"FC Npr3 (1435184_at), treated miR-143/145 KO vs. WT",[2]; [4],1.68
same,"FC Pde3b (1433694_at), treated miR-143/145 KO vs. WT",[2]; [4],0.87
same,"FC Ppp2r1b (1419871_at), treated miR-143/145 KO vs. WT",[2]; [4],0.65
same,"FC Prkg1 (1449876_at), treated miR-143/145 KO vs. WT",[2]; [4],1.16
same,"FC Rock1 (1460729_at), treated miR-143/145 KO vs. WT",[2]; [4],1.77
same,"FC S100a8 (1419394_s_at), treated miR-143/145 KO vs. WT",[2]; [4],1.83
same,"FC S100a9 (1448756_at), treated miR-143/145 KO vs. WT",[2]; [4],1.64
same,"FC Serca1 (1419312_at), treated miR-143/145 KO vs. WT",[2]; [4],0.82
same,"FC Tnnc2 (1417464_at), treated miR-143/145 KO vs. WT",[2]; [4],1.51
same,"FC Unc5c (1449522_at), treated miR-143/145 KO vs. WT",[2]; [4],0.80
same,number of the 507 deregulated probe sets returned to normal (WT) levels,"[2]; mutant mice, 3 weeks (20 days) oral application, p > 0.05 vs. WT, n = 3",220
same,significant morphological changes in arteries,[3],not observed
